# Laboratory results as given in patent US20250282796A1, “PENEM ANTIBACTERIALS AGAINST MYCOBACTERIAL PATHOGENS AND D,D- AND L,D TRANSPEPTIDASES” (The Johns Hopkins University, priority 2022, published 2025).
# “Also recorded” adds a separate entry of the source. Where two headings read alike, the source gives them in different places.
# Tests used:
# Mtb H37Rv = assay: MIC broth microdilution assay against Mtb H37Rv (with and without clavulanate); assay type: cell-based, Mycobacterium tuberculosis; conditions: for MIC: Mycobacterium tuberculosis, H37RV, 336 h, read-out: MIC Mtb H37Rv; for increase of MIC relative to T405: Mtb H37Rv without clavulanate
# Mab ATCC 19977 = assay: MIC broth microdilution assay against Mab ATCC 19977; assay type: cell-based, Mycobacteroides abscessus; conditions: for MIC: Mycobacteroides abscessus, read-out: MIC Mab ATCC 19977
# LdtMt2 = target: T1, LdtMt2 (Mycobacterium tuberculosis, UniProt I6Y9J2); assay: LdtMt2 adduct formation by intact-protein UPLC-HRMS; assay type: binding; conditions: penem 20 μM, 1 h, 25 mM HEPES pH 7.0, 20° C.
# T1 construct: made in house
# DacB2 = target: T2, DacB2 (Mycobacterium tuberculosis, UniProt I6Y204); assay: DacB2 adduct formation and stability comparison by intact-protein UPLC-HRMS; assay type: binding; conditions: for DacB2 adduct formation: 20 μM drug, 1 h
# T2 construct: made in house
# [1] = without clavulanate, Middlebrook 7H9, 37° C., 14 d
# [2] = ATCC19977, Middlebrook 7H9, 30° C., 72 h
# [3] = 24 h after removal of free drug, 20° C.
# T1 sequence (I6Y9J2 56-408): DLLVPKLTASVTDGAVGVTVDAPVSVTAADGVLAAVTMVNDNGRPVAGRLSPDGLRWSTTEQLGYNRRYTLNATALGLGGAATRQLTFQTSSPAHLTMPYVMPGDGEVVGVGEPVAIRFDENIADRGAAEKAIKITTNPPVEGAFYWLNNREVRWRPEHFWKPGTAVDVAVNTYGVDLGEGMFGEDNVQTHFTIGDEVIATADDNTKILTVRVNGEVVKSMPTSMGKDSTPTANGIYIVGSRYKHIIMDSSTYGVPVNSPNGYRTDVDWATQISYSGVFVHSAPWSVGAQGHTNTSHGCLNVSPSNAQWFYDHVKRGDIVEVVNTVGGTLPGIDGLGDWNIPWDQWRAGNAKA
# T2 sequence (I6Y204 28-291): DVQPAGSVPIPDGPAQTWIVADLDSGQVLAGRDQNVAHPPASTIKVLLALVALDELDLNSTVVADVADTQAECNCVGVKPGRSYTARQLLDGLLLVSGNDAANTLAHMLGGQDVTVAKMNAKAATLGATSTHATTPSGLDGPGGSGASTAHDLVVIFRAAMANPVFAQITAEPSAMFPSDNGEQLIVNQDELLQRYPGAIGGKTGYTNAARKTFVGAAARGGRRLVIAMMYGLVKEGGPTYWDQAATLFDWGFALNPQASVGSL
Structure (SMILES),MIC (Mtb H37Rv; [1]),"MIC Mtb H37Rv with Clavulanate (5 μg/ml) (Mtb H37Rv; Middlebrook 7H9, 37° C., 14 d)",MIC (Mab ATCC 19977; [2]),also measured
"C[C@@H](O)[C@H]1C(=O)N2C(C(=O)O)=C(SCC3CNC3)S[C@H]12 [Compound T428, (5R,6S)-3-((azetidin-3-ylmethyl)thio)-6-((R)-1-hydroxyethyl)-7-oxo-4-thia-1-azabicyclo[3.2.0]hept-2-ene-2-carboxylic acid]",0.5 µg/mL,0.25 µg/mL,8 µg/mL,"covalent LdtMt2 adduct formed (LdtMt2): formed a +86 Da LdtMt2 adduct; also recorded: fragmentation to a M+86 Da 3-hydroxybutyryl group; DacB2 adduct formation (DacB2; 20° C., pH 7.0): formed intact adducts; DacB2 adduct stability (in words) (DacB2; [3]): partially hydrolyzed; inhibitor retained on DacB2 (percent bound) (DacB2; 24 h after removal of free drug, 20° C., pH 7.0): 86%; loss of drug from DacB2 adduct (DacB2; 24 h after washing away free drug): 14%"
"C[C@@H](O)[C@H]1C(=O)N2C(C(=O)O)=C(SC3CNC3)S[C@H]12 [Compound T422, (5R,6S)-3-(azctidin-3-ylthio)-6-((R)-1-hydroxyethyl)-7-oxo-4-thia-1-azabicyclo[3.2.0]hept-2-ene-2-carboxylic acid]",–,0.5 µg/mL,–,"MIC (Mtb H37Rv): 0.5 µg/mL; weaker activity (MIC) relative to T405 (Mab ATCC 19977; Mab ATCC 19977): 2 fold; MIC (Mab ATCC 19977; ATCC19977, 72 h): 4 µg/mL"
"C[C@@H](O)[C@H]1C(=O)N2C(C(=O)O)=C(S[C@@H]3CN[C@H](C(=O)N(C)C)C3)[C@H](C)[C@H]12 [Meropenem, reference compound]",8 µg/mL,0.5 µg/mL,–,"MIC Mtb H37Rv (Mtb H37Rv; [1]): 8 µg/mL; DacB2 adduct formation (DacB2; 20° C., pH 7.0): fully reacts with DacB2; DacB2 adduct stability (in words) (DacB2; [3]): stable after removal of drug for 24 h; DacB2 adduct stability (in words) (DacB2; 24 h after removal of free drug, 20° C., listed as meropenem): remained completely bound; also recorded: fully bound"
"C[C@@H](O)[C@H]1C(=O)N2C(C(=O)O)=C(SC3CN(c4nc5ccccc5n4C)C3)S[C@H]12 [Compound T418, (5R,6S)-6-((R)-1-hydroxyethyl)-3-((1-(1-methyl-1H-benzo[d]imidazol-2-yl)azetidin-3-yl)thio)-7-oxo-4-thia-1-azabicyclo[3.2.0]hept-2-ene-2-carboxylic acid]",2 µg/mL,0.5 µg/mL,64 µg/mL,increase of MIC relative to T405 (Mtb H37Rv): four-fold
"C[C@@H](O)[C@H]1C(=O)N2C(C(=O)O)=C(SC3CCNCC3)S[C@H]12 [Compound T427, (5R,6S)-6-((R)-1-hydroxyethyl)-7-oxo-3-(piperidin-4-ylthio)-4-thia-1-azabicyclo[3.2.0]hept-2-ene-2-carboxylic acid]",–,0.5 µg/mL,–,"increase of MIC relative to T405 (Mtb H37Rv): two-fold; MIC (Mtb H37Rv): 1 µg/mL; MIC (Mab ATCC 19977; ATCC19977, 72 h): 4 µg/mL"
"C[C@@H](O)[C@H]1C(=O)N2C(C(=O)O)=C(SCCN=CN)C[C@H]12 [Imipenem, reference compound]",–,–,8 µg/mL,"MIC Mab ATCC 19977 (Mab ATCC 19977; Middlebrook 7H9, 30° C., 72 h): 8 µg/mL"
"C[C@@H](O)[C@H]1C(=O)N2C(C(=O)O)=C(SCC3CCNCC3)S[C@H]12 [Compound T429, (5R,6S)-6-((R)-1-hydroxyethyl)-7-oxo-3-((piperidin-4-ylmethyl)thio)-4-thia-1-azabicyclo[3.2.0]hept-2-ene-2-carboxylic acid]",0.5 µg/mL,0.25 µg/mL,4 µg/mL,–
"C[C@@H](O)[C@H]1C(=O)N2C(C(=O)O)=C(SC3CN(c4nc5ccccc5s4)C3)S[C@H]12 [Compound T423, (5R,6S)-3-((1-(benzo[d]thiazol-2-yl)azetidin-3-yl)thio)-6-((R)-1-hydroxyethyl)-7-oxo-4-thia-1-azabicyclo[3.2.0]hept-2-ene-2-carboxylic acid]",8 µg/mL,2 µg/mL,64 µg/mL,increase of MIC relative to T405 (Mtb H37Rv): 16 fold
"C[C@@H](O)[C@H]1C(=O)N2C(C(=O)O)=C(S[C@H]3CCNC3)S[C@H]12 [Compound T426, (5R,6S)-6-((R)-1-hydroxyethyl)-7-oxo-3-(((S)-pyrrolidin-3-yl)thio)-4-thia-1-azabicyclo[3.2.0]hept-2-ene-2-carboxylic acid]",0.5 µg/mL,0.25 µg/mL,2 µg/mL,"MIC against Mab (Mab ATCC 19977; Mab ATCC 19977): 1 µg/mL; covalent LdtMt2 adduct formed (LdtMt2): formed a +86 Da LdtMt2 adduct; also recorded: fragmentation to a M+86 Da 3-hydroxybutyryl group; DacB2 adduct formation (DacB2; 20° C., pH 7.0): formed intact adducts; DacB2 adduct stability (in words) (DacB2; [3]): remained completely bound; also recorded: fully bound; also recorded: stable for at least 24 h after drug removal"
"CCN1CC(SC2=C(C(=O)O)N3C(=O)[C@H]([C@@H](C)O)[C@H]3S2)C1 [Compound T421, (5R,6S)-3-((1-ethylazetidin-3-yl)thio)-6-((R)-1-hydroxyethyl)-7-oxo-4-thia-1-azabicyclo[3.2.0]hept-2-ene-2-carboxylic acid]",1 µg/mL,0.5 µg/mL,4 µg/mL,–
"C[C@@H](O)[C@H]1C(=O)N2C(C(=O)O)=C(S[C@@H]3CCN(C4CCOCC4)C3)S[C@H]12 [Compound T432, (5R,6S)-6-((R)-1-hydroxyethyl)-7-oxo-3-(((R)-1-(tetrahydro-2H-pyran-4-yl)pyrrolidin-3-yl)thio)-4-thia-1-azabicyclo[3.2.0]hept-2-ene-2-carboxylic acid]",4 µg/mL,–,4 µg/mL,–
"C[C@@H](O)[C@H]1C(=O)N2C(C(=O)O)=C(SC3CN(C4=NCCCS4)C3)S[C@H]12 [Compound T420, (5R,6S)-3-((1-(5,6-dihydro-4H-1,3-thiazin-2-yl)azetidin-3-yl)thio)-6-((R)-1-hydroxyethyl)-7-oxo-4-thia-1-azabicyclo[3.2.0]hept-2-ene-2-carboxylic acid]",2 µg/mL,0.5 µg/mL,16 µg/mL,increase of MIC relative to T405 (Mtb H37Rv): two dilutions
"C[C@@H](O)[C@H]1C(=O)N2C(C(=O)O)=C(SC3CN(C4CCOCC4)C3)S[C@H]12 [Compound T430, (5R,6S)-6-((R)-1-hydroxyethyl)-7-oxo-3-((1-(tetrahydro-2H-pyran-4-yl)azetidin-3-yl)thio)-4-thia-1-azabicyclo[3.2.0]hept-2-ene-2-carboxylic acid]",4 µg/mL,–,4 µg/mL,–
"C[C@@H](O)[C@H]1C(=O)N2C(C(=O)O)=C(S[C@@H]3CCNC3)S[C@H]12 [Compound T425, (5R,6S)-6-((R)-1-hydroxyethyl)-7-oxo-3-(((R)-pyrrolidin-3-yl)thio)-4-thia-1-azabicyclo[3.2.0]hept-2-ene-2-carboxylic acid]",0.5 µg/mL,0.25 µg/mL,2 µg/mL,MIC against Mab (Mab ATCC 19977; Mab ATCC 19977): 1 µg/mL
"CCN1CC[C@@H](SC2=C(C(=O)O)N3C(=O)[C@H]([C@@H](C)O)[C@H]3S2)C1 [Compound T431, (5R,6S)-3-(((R)-1-ethylpyrrolidin-3-yl)thio)-6-((R)-1-hydroxyethyl)-7-oxo-4-thia-1-azabicyclo[3.2.0]hept-2-ene-2-carboxylic acid]",4 µg/mL,–,4 µg/mL,–
